The results in this text go back to patent US5925731A, “Endothelin antagonist peptides” (Takeda Chemical Industries, Ltd., priority 1995, dated 1999).

For experiment [1], the target named is T1, human endothelin receptor ETA (Homo sapiens, UniProt P25101).
T1 construct: expressed in transfected cells; host or cells: CHO cells (membrane fraction)
T1 sequence (P25101 21-427): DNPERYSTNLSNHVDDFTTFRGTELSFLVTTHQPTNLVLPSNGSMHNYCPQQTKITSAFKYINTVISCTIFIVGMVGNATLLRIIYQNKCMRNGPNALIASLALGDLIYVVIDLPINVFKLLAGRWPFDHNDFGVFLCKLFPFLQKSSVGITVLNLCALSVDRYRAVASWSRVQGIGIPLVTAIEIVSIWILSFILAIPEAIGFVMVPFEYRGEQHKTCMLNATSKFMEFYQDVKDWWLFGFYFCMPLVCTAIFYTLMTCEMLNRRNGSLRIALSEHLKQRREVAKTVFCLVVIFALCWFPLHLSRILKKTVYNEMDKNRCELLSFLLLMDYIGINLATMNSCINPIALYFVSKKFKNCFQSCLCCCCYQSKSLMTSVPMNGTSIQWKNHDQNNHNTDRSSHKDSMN
As to the kind of experiment: Radioiodinated endothelin-1 binding to membrane fraction of CHO cells expressing human endothelin receptor ETA. The note with it: radioactive-iodine-labeled endothelin-1, 25° C., one hour. The procedure: (§1) The membrane fraction of CHO cells on which human endothelin receptor (ETA or ETB) was expressed was diluted to 0.15 mg/ml with an assaying buffer and dispensed to assaying tubes at 100 μl per tube. To this membrane fraction suspension were added 2 μl of a solution of endothelin-1 labeled with radioactive iodine (5 nM) and 3 μl of a 50% dimethyl sulfoxide of the test compound, followed by incubation at 25° C. for one hour. The membrane fraction suspension was diluted with 900 μl of an ice-cooled assaying buffer and centrifuged at 12,000×G for 10 minutes to separate supernatant and precipitate. The precipitate contained cell membranes and endothelin receptors embedded therein. The receptor-bound endothelin, labeled with radioactive iodine, was also recovered in the precipitate. The radioactive iodine in this precipitate was counted, using a gamma ray counter, to determine the amount of radioactive-iodine-labeled endothelin-1 bound to the endothelin receptors. The results of the quantitative determination were shown in the respective IC50 (nm) values in the following Table 2.

For experiment [2], the target named is T2, human endothelin receptor ETB (Homo sapiens, UniProt P24530).
T2 construct: expressed in transfected cells; host or cells: CHO cells (membrane fraction)
T2 sequence (P24530 27-442): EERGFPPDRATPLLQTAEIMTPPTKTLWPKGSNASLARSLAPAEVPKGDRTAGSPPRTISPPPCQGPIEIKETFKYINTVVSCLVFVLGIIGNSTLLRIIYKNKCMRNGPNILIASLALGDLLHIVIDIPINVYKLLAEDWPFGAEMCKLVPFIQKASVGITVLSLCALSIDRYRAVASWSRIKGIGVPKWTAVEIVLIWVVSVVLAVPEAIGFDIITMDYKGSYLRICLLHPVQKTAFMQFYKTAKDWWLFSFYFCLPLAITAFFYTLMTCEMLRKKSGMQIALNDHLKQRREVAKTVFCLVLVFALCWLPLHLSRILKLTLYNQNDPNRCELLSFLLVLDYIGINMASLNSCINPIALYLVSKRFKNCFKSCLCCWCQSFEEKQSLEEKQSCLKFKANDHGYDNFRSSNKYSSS
As to the kind of experiment: Radioiodinated endothelin-1 binding to membrane fraction of CHO cells expressing human endothelin receptor ETB. The note with it: radioactive-iodine-labeled endothelin-1, 25° C., one hour. The protocol:
as §1

*1 amine or outer side, *2 acyl side, *3 side chain or, on linkers, in order; H or OH if unused. Where a SMILES comes first, the peptide text is derived from it. [ ]: non-standard residue; d: D form. The star is where a group is joined. Piperazinyl(4-(2-MeOPh)) = COc1ccccc1N1CCN(*)CC1; Piperazinyl(4-Ph) = c1ccc(N2CCN(*)CC2)cc1; X3 = COc1ccc(C)cc1N1CCN(*)CC1; X2 = COc1cccc(N2CCN(*)CC2)c1; dNle = CCCC[C@@H](N)C(=O)O; X4 = Fc1ccccc1N1CCN(*)CC1; Nle = CCCC[C@H](N)C(=O)O; CO = O=C([*:1])[*:2]; X1 = C1CCCN(*)CC1; Moc = COC(=O)*; For = O=C*

As to `CCCC[C@@H](NC(=O)[C@@H](Cc1cn(C=O)c2ccccc12)NC(=O)[C@H](CC(C)C)NC(=O)N1CCCCCC1)C(=O)N[C@H](CC(=O)N1CCN(c2ccccc2)CC1)C(=O)O` [W. Ex. 1, Hexamethyleniminocarbonyl-Leu-D-Trp(CHO)-D-Nle-D-Asp(Php)] ({X1-CO}-L[dW](For)[dNle][dD](Piperazinyl(4-Ph))-OH), the IC50 in experiment [1] amounted to 1.8 nM; in experiment [2], 130 nM.

Take `CCCC[C@@H](NC(=O)[C@@H](Cc1cn(C(=O)OC)c2ccccc12)NC(=O)[C@H](CC(C)C)NC(=O)N1CCCCCC1)C(=O)N[C@H](CC(=O)N1CCN(c2ccccc2)CC1)C(=O)O` [W. Ex. 2, Hexamethyleniminocarbonyl-Leu-D-Trp(COOMe)-D-Nle-D-Asp(Php)] ({X1-CO}-L[dW](Moc)[dNle][dD](Piperazinyl(4-Ph))-OH): the figures for the IC50 in experiment [1] and in experiment [2] were 11 nM and 18 nM, respectively.

Turning to `CCCC[C@@H](NC(=O)[C@@H](Cc1cn(C(=O)OC)c2ccccc12)NC(=O)[C@H](CC(C)C)NC(=O)N1CCCCCC1)C(=O)N[C@@H](CC(=O)N1CCN(c2ccccc2)CC1)C(=O)O` [W. Ex. 3, Hexamethyleniminocarbonyl-Leu-D-Trp(COOMe)-D-Nle-Asp (Php)] ({X1-CO}-L[dW](Moc)[dNle]D(Piperazinyl(4-Ph))-OH), the IC50 was determined as 45 nM in experiment [1] and 34 nM in experiment [2].

In the case of `CCCC[C@@H](NC(=O)[C@@H](Cc1cn(C(=O)OC)c2ccccc12)NC(=O)[C@H](CC(C)C)NC(=O)N1CCCCCC1)C(=O)N[C@H](CCC(=O)O)C(=O)N1CCN(c2ccccc2)CC1` [W. Ex. 4, Hexamethyleniminocarbonyl-Leu-D-Trp(COOMe)-D-Nle-D-Glu-Php] ({X1-CO}-L[dW](Moc)[dNle][dE]-{Piperazinyl(4-Ph)}), the IC50 in experiment [1] and in experiment [2] was 23 nM throughout.

With `CCCC[C@@H](NC(=O)[C@@H](Cc1cn(C(=O)OC)c2ccccc12)NC(=O)[C@H](CC(C)C)NC(=O)N1CCCCCC1)C(=O)N[C@H](CC(=O)N1CCN(c2ccccc2OC)CC1)C(=O)O` [W. Ex. 5, Hexamethyleniminocarbonyl-Leu-D-Trp(COOMe)-D-Nle-D-Asp (2MeOPhp)] ({X1-CO}-L[dW](Moc)[dNle][dD](Piperazinyl(4-(2-MeOPh)))-OH), the concentration for half-maximal inhibition (IC50) in experiment [1] came to 7.1 nM; in experiment [2] it was 7.9 nM.

As to `CCCC[C@@H](NC(=O)[C@@H](Cc1cn(C(=O)OC)c2ccccc12)NC(=O)[C@H](CC(C)C)NC(=O)N1CCCCCC1)C(=O)N[C@H](CC(=O)N1CCN(c2cccc(OC)c2)CC1)C(=O)O` [W. Ex. 6, Hexamethyleniminocarbonyl-Leu-D-Trp(COOMe)-D-Nle-D-Asp (3MeOPhp)] ({X1-CO}-L[dW](Moc)[dNle][dD](X2)-OH), the IC50 in experiment [1] worked out at 28 nM; in experiment [2] it was 29 nM.

With `CCCC[C@@H](NC(=O)[C@@H](Cc1cn(C(=O)OC)c2ccccc12)NC(=O)[C@H](CC(C)C)NC(=O)N1CCCCCC1)C(=O)N[C@H](CC(=O)N1CCN(c2cc(C)ccc2OC)CC1)C(=O)O` [W. Ex. 7, Hexamethyleniminocarbonyl-Leu-D-Trp(COOMe)-D-Nle-D-Asp(2MeO-5MePhp)] ({X1-CO}-L[dW](Moc)[dNle][dD](X3)-OH), the values for the IC50 in experiment [1] and in experiment [2] were 49 nM and 110 nM, respectively.

In the case of `CCCC[C@@H](NC(=O)[C@@H](Cc1cn(C(=O)OC)c2ccccc12)NC(=O)[C@H](CC(C)C)NC(=O)N1CCCCCC1)C(=O)N[C@H](CC(=O)N1CCN(c2ccccc2F)CC1)C(=O)O` [W. Ex. 8, Hexamethyleniminocarbonyl-Leu-D-Trp(COOMe)-D-Nle-D-Asp (2FPhp)] ({X1-CO}-L[dW](Moc)[dNle][dD](X4)-OH), the IC50 in experiment [1] came out at 18 nM; in experiment [2], 29 nM.

As to `CCCC[C@@H](NC(=O)[C@@H](Cc1cn(C(=O)OC)c2ccccc12)NC(=O)[C@@H](NC(=O)N1CCCCCC1)[C@@H](C)CC)C(=O)N[C@H](CC(=O)N1CCN(c2ccccc2)CC1)C(=O)O` [W. Ex. 9, Hexamethyleniminocarbonyl-Ile-D-Trp(COOMe)-D-Nle-D-Asp(Php)] ({X1-CO}-I[dW](Moc)[dNle][dD](Piperazinyl(4-Ph))-OH), the figures for the IC50 in experiment [1] and in experiment [2] were 21 nM and 15 nM, respectively.

As for `CCCC[C@H](NC(=O)N1CCCCCC1)C(=O)N[C@H](Cc1cn(C(=O)OC)c2ccccc12)C(=O)N[C@H](CCCC)C(=O)N[C@H](CC(=O)N1CCN(c2ccccc2)CC1)C(=O)O` [W. Ex. 10, Hexamethyleniminocarbonyl-Nle-D-Trp(COOMe)-D-Nle-D-Asp(Php)] ({X1-CO}-[Nle][dW](Moc)[dNle][dD](Piperazinyl(4-Ph))-OH), the IC50 in experiment [1] stood at 34 nM; in experiment [2], 75 nM.
